≈ marks a conversion by molar mass, not a printed value. Calls of active or inactive are those of the source.

The first experiment deals with Vibrio parahaemolyticus. As to the kind of experiment: Antibacterial activity against Vibrio parahaemolyticus at 25 ug/ml measured after 20 to 45 mins by broth microdilution method. The experiment is classed as functional, organism-based. Conditions: dose 25.0 µg/ml, time 20-45 min. A general note: Broth dilution looks for growth in wells or tubes with falling amounts of substance.
As for `CC1=C[C@@H]2/C=C(\C)CC[C@@H](O)[C@@H](O)/C=C/C(=O)[C@]23C(=O)N[C@@H](CC(C)C)[C@@H]3[C@@H]1C`, the result was inactive.

The test system of a further experiment is Bacillus subtilis. As to the kind of experiment: Antibacterial activity against Bacillus subtilis measured after 20 to 45 mins by broth microdilution method. The experiment is classed as functional. The note with it: time 20-45 min.
Regarding `CC1=C[C@@H]2/C=C(\C)CC[C@@H](O)[C@@H](O)/C=C/C(=O)[C@]23C(=O)N[C@@H](CC(C)C)[C@@H]3[C@@H]1C`, the MIC (commonly the smallest concentration in the dilution series that meets the test's criterion for growth inhibition) is 6.3 µg/mL (≈ 15.7 µM).

A further experiment has as its system Staphylococcus aureus. As to the kind of experiment: Antibacterial activity against Staphylococcus aureus at 25 ug/ml measured after 20 to 45 mins by broth microdilution method. The experiment is classed as functional, organism-based. The note with it: dose 25.0 µg/ml, time 20-45 min.
On to `CC1=C[C@@H]2/C=C(\C)CC[C@@H](O)[C@@H](O)/C=C/C(=O)[C@]23C(=O)N[C@@H](CC(C)C)[C@@H]3[C@@H]1C`, for which the outcome was inactive.

The test system of another experiment is Enterococcus faecalis. As to the kind of experiment: Antibacterial activity against Enterococcus faecalis measured after 20 to 45 mins by broth microdilution method. The note with it: time 20-45 min. The experiment is classed as functional.
In turn, `CC1=C[C@@H]2/C=C(\C)CC[C@@H](O)[C@@H](O)/C=C/C(=O)[C@]23C(=O)N[C@@H](CC(C)C)[C@@H]3[C@@H]1C` registered an MIC of 6.3 µg/mL (≈ 15.7 µM).

The test system of the next experiment is HeLa. As to the kind of experiment: Cytotoxicity against human HeLa cells by MTT assay. The experiment is classed as functional, cell-based.
Settings: not given
On the technique in general: Tetrazolium dyes change colour on reduction, which living cells bring about.
Consider `CC1=C[C@@H]2/C=C(\C)CC[C@@H](O)[C@@H](O)/C=C/C(=O)[C@]23C(=O)N[C@@H](CC(C)C)[C@@H]3[C@@H]1C`, for which the IC50 (commonly the concentration at which inhibition is half-maximal) is above 20 µM.

For another experiment, the system named is Salmonella typhi. As to the kind of experiment: Antibacterial activity against Salmonella typhi at 25 ug/ml measured after 20 to 45 mins by broth microdilution method. The experiment is classed as functional, organism-based. Conditions: Salmonella enterica subsp. enterica serovar Typhi; dose 25.0 µg/ml, time 20-45 min.
Consider `CC1=C[C@@H]2/C=C(\C)CC[C@@H](O)[C@@H](O)/C=C/C(=O)[C@]23C(=O)N[C@@H](CC(C)C)[C@@H]3[C@@H]1C`, for which the outcome was inactive.

The test system of a further experiment is A2780. Nature of the experiment: Cytotoxicity against human A2780 cells by MTT assay. The experiment is classed as functional, cell-based.
Settings: not given
The compound `CC1=C[C@@H]2/C=C(\C)CC[C@@H](O)[C@@H](O)/C=C/C(=O)[C@]23C(=O)N[C@@H](CC(C)C)[C@@H]3[C@@H]1C` returned an IC50 above 20 µM.

Another experiment concerns Shigella dysenteriae. Nature of the experiment: Antibacterial activity against Shigella dysenteriae at 25 ug/ml measured after 20 to 45 mins by broth microdilution method. The experiment is classed as functional, organism-based. The note with it: dose 25.0 µg/ml, time 20-45 min.
Regarding `CC1=C[C@@H]2/C=C(\C)CC[C@@H](O)[C@@H](O)/C=C/C(=O)[C@]23C(=O)N[C@@H](CC(C)C)[C@@H]3[C@@H]1C`, the outcome was inactive.

The test system of a further experiment is SK-OV-3. Nature of the experiment: Cytotoxicity against human SK-OV-3 cells by MTT assay. The experiment is classed as functional, cell-based.
Settings: not given
In turn, `CC1=C[C@@H]2/C=C(\C)CC[C@@H](O)[C@@H](O)/C=C/C(=O)[C@]23C(=O)N[C@@H](CC(C)C)[C@@H]3[C@@H]1C` gave an IC50 above 20 µM.

The subject of a further experiment is HepG2. As to the kind of experiment: Cytotoxicity against human HepG2 cells by MTT assay. The experiment is classed as functional, cell-based.
Settings: not given
The compound `CC1=C[C@@H]2/C=C(\C)CC[C@@H](O)[C@@H](O)/C=C/C(=O)[C@]23C(=O)N[C@@H](CC(C)C)[C@@H]3[C@@H]1C` registered an IC50 above 20 µM.

A further experiment relates to Escherichia coli. As to the kind of experiment: Antibacterial activity against Escherichia coli at 25 ug/ml measured after 20 to 45 mins by broth microdilution method. The experiment is classed as functional, organism-based. The note with it: dose 25.0 µg/ml, time 20-45 min.
`CC1=C[C@@H]2/C=C(\C)CC[C@@H](O)[C@@H](O)/C=C/C(=O)[C@]23C(=O)N[C@@H](CC(C)C)[C@@H]3[C@@H]1C`: the outcome was inactive.

The values are drawn from ChEMBL document CHEMBL5584362, “Sucurchalasins A and B, Sulfur-Containing Heterodimers of a Cytochalasan and a Macrolide from the Endophytic Fungus Aspergillus spelaeus GDGJ-286” (J Nat Prod, 2024).
